Counter-ions that a name gives are not always drawn. Bounds are passed on as bounds.

Here are results for 19 molecules from US10829501B2 (BRISTOL-MYERS SQUIBB COMPANY, priority 2016, dated 2020).

Sequence of ROCK2 (O75116 whole entry, species assumed): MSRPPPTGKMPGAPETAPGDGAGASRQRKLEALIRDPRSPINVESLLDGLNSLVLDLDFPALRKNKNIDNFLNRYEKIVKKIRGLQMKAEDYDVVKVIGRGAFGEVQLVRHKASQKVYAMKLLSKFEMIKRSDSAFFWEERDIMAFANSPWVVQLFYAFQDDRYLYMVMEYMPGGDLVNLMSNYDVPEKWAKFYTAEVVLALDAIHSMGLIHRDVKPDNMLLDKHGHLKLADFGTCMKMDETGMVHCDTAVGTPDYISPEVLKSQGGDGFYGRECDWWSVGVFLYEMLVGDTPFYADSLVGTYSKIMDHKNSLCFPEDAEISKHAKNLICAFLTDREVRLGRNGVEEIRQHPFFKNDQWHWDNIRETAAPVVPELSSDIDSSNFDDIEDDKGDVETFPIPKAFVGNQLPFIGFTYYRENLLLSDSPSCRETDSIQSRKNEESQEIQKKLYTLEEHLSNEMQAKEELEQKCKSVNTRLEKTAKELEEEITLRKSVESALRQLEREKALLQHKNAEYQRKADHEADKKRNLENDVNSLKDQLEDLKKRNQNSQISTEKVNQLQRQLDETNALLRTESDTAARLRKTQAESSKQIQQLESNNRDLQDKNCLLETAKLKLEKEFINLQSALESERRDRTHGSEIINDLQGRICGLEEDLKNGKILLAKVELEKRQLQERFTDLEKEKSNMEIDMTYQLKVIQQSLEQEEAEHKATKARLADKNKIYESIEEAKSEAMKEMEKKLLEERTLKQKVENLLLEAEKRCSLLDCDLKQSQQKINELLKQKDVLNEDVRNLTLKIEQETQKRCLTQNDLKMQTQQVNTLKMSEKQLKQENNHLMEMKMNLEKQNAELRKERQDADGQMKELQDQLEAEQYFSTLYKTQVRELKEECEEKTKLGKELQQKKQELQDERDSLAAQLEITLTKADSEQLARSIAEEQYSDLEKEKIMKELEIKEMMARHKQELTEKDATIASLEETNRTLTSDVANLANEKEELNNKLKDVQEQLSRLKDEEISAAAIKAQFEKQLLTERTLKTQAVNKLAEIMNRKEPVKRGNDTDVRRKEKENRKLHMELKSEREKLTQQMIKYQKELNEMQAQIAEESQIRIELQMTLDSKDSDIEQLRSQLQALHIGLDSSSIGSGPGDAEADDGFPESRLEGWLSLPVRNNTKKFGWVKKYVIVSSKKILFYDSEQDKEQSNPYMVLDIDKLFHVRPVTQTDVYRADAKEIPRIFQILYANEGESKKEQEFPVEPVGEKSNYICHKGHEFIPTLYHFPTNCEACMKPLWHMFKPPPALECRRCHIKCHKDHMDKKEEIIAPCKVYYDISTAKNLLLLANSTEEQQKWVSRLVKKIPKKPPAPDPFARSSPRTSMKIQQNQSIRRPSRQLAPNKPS

One experiment concerns the target ROCK2 (Homo sapiens, UniProt O75116). The experiment is described as follows: ROCK2 kinase inhibition assay (LABCHIP 3000 Reader, FITC peptide substrate).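 Further: rho kinase reaction read by separating phosphorylated from unphosphorylated peptide on chip, with inhibition of kinase activity computed per concentration across a dose-response series.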
Conditions: not given
The IC50 is the concentration that inhibits the measured activity by half. With `Cn1cc(-c2ccc3c(C(=O)N[C@H]4CC5(C4)C[C@H](Oc4ncccc4C(N)=O)C5)nn(C(F)F)c3c2)cn1` (stereo partly drawn) [Example 106, N-((aR)-6-((3-carbamoylpyridin-2-yl)oxy)spiro[3.3]heptan-2-yl)-1-(difluoromethyl)-6-(1-methyl-1H-pyrazol-4-yl)-1H-indazole-3-carboxamide, trifluoroacetate], the concentration for half-maximal inhibition (IC50) was < 5 nM. Same read-out and setting: the figure for `CC(C)(O)COc1ccc2c(C(=O)NC3CC4(C3)CC(Oc3cc(CC5CCNC5)ccc3C(N)=O)C4)cnn2c1` (stereo not shown) [Example 304, N-(6-(2-carbamoyl-5-(pyrrolidin-3-ylmethyl)phenoxy)spiro[3.3]heptan-2-yl)-6-(2-hydroxy-2-methylpropoxy)pyrazolo[1,5-a]pyridine-3-carboxamide] is 5 to 50 nM. The same measure, in the same setting: the figure for `NC(=O)c1cccnc1O[C@H]1CC2(C[C@H](NC(=O)c3cnc4cnccn34)C2)C1` (stereo partly drawn) [Example 345, N-((aR)-6-((3-carbamoylpyridin-2-yl)oxy)spiro[3.3]heptan-2-yl)imidazo[1,2-a]pyrazine-3-carboxamide] is 250 to 2500 nM; for `CC(C)(O)COc1ccc2c(C(=O)NC3CC4(C3)CC(Oc3cc(-c5cccc(OCCCN)c5)ccc3C(N)=O)C4)cnn2c1` (stereo not shown) [Example 288, N-(6-((3′-(3-aminopropoxy)-4-carbamoyl-[1,1′-biphenyl]-3-yl)oxy)spiro[3.3]heptan-2-yl)-6-(2-hydroxy-2-methylpropoxy)pyrazolo[1,5-a]pyridine-3-carboxamide] it is 5 to 50 nM. The same measure, in the same setting: with `CC(C)(O)COc1ccc2c(C(=O)NC3CC4(C3)CC(Oc3cc(-c5cc(C#N)cc([N+](=O)[O-])c5)ccc3C(N)=O)C4)cnn2c1` (stereo not shown) [Example 254, N-(6-((4-carbamoyl-3′-cyano-5′-nitro-[1,1′-biphenyl]-3-yl)oxy)spiro[3.3]heptan-2-yl)-6-(2-hydroxy-2-methylpropoxy)pyrazolo[1,5-a]pyridine-3-carboxamide] the figure was 5 to 50 nM; with `CC(C)(O)COc1ccc2c(C(=O)NC3CC4(C3)CC(Oc3cc(-c5cnn(CC(C)(C)O)c5)ccc3C(N)=O)C4)cnn2c1` (stereo not shown) [Example 279, N-(6-(2-carbamoyl-5-(1-(2-hydroxy-2-methylpropyl)-1H-pyrazol-4-yl)phenoxy)spiro[3.3]heptan-2-yl)-6-(2-hydroxy-2-methylpropoxy)pyrazolo[1,5-a]pyridine-3-carboxamide], 5 to 50 nM. `NC(=O)c1ccccc1O[C@H]1CC2(C[C@H](NC(=O)c3cnc4cc(OCCN5CCCC5)ccn34)C2)C1` (stereo partly drawn) [Example 26, N-((aR)-6-(2-carbamoylphenoxy)spiro[3.3]heptan-2-yl)-7-(2-(pyrrolidin-1-yl)ethoxy)imidazo[1,2-a]pyridine-3-carboxamdie] had a half-inhibitory concentration (IC50) of 5 to 50 nM. Consider `Cc1c(C(=O)NC2CC3(C2)CC(Oc2ccccc2C(N)=O)C3)cnn1-c1ccccc1` (stereo not shown) [Example 1, N-(6-(2-carbamoylphenoxy)spiro[3.3]heptan-2-yl)-5-methyl-1-phenyl-1H-pyrazole-4-carboxamide], for which the half-inhibitory concentration (IC50) fell in the range of 50 to 250 nM. In turn, `CC(C)(O)COc1ccc2c(C(=O)NC3CC4(C3)CC(Oc3cc(C5CC5)ccc3C(N)=O)C4)cnn2c1` (stereo not shown) [Example 273, N-(6-(2-carbamoyl-5-cyclopropylphenoxy)spiro[3.3]heptan-2-yl)-6-(2-hydroxy-2-methylpropoxy)pyrazolo[1,5-a]pyridine-3-carboxamide] showed an IC50 of 5 to 50 nM. Still for that read-out and setting: with `CC(C)(O)COc1ccc2c(C(=O)NC3CC4(C3)CC(Oc3c(F)cc(F)cc3C(N)=O)C4)cnn2c1C1CC1` (stereo not shown) [Example 269, N-(6-(2-carbamoyl-4,6-difluorophenoxy)spiro[3.3]heptan-2-yl)-7-cyclopropyl-6-(2-hydroxy-2-methylpropoxy)pyrazolo[1,5-a]pyridine-3-carboxamide] the figure was 50 to 250 nM; with `CC(C)(C(N)=O)n1nc(C(=O)N[C@H]2CC3(C2)C[C@H](Oc2ncccc2C(N)=O)C3)c2ccc(-c3cnn(C(F)F)c3)cc21` (stereo partly drawn) [Example 409, 1-(1-amino-2-methyl-1-oxopropan-2-yl)-N-((aR)-6-((3-carbamoylpyridin-2-yl)oxy)spiro[3.3]heptan-2-yl)-6-(1-(difluoromethyl)-1H-pyrazol-4-yl)-1H-indazole-3-carboxamide, TFA], < 5 nM; with `NC(=O)c1cccnc1O[C@H]1CC2(C[C@H](NC(=O)c3ccc4c(c3)S(=O)(=O)NC4=O)C2)C1` (stereo partly drawn) [Example 149, N-((aR)-6-((3-carbamoylpyridin-2-yl)oxy)spiro[3.3]heptan-2-yl)-3-oxo-2,3-dihydrobenzo[d] isothiazole-6-carboxamide 1,1-dioxide, trifluoroacetate], 50 to 250 nM. Still for that read-out and setting: the figure for `NC(=O)c1cccnc1O[C@H]1CC2(C[C@H](NC(=O)c3cnn4cc(OCCCC(F)(F)F)ccc34)C2)C1` (stereo partly drawn) [Example 122, N-((aR)-6-((3-carbamoylpyridin-2-yl)oxy)spiro[3.3]heptan-2-yl)-6-(4,4,4-trifluorobutoxy) pyrazolo[1,5-a]pyridine-3-carboxamide, trifluoroacetate] is 5 to 50 nM; for `Cn1cc(-c2ccc3c(C(=O)N[C@H]4CC5(C4)C[C@H](Oc4ncccc4C(N)=O)C5)nnn3c2)cn1` (stereo partly drawn) [Example 367, N-((aR)-6-((3-carbamoylpyridin-2-yl)oxy)spiro[3.3]heptan-2-yl)-6-(1-methyl-1H-pyrazol-4-yl)-[1,2,3]triazolo[1,5-a]pyridine-3-carboxamide] it is < 5 nM. Same read-out and setting: the figure for `N#Cc1ccc(-c2ccc(C(=O)N[C@H]3CC4(C3)C[C@H](Oc3ncccc3C(N)=O)C4)cn2)cc1` (stereo partly drawn) [Example 161, N-((aR)-6-((3-carbamoylpyridin-2-yl)oxy)spiro[3.3]heptan-2-yl)-6-(4-cyanophenyl) nicotinamide] is 5 to 50 nM.

The same experiment, now with this note: read-out: ROCK2 Activity (ROCK2 IC50); 5 μM ATP, 1.5 μM peptide substrate, pH 7.5.
On to `Cn1cc(-c2ccc3c(C(=O)NC4CC5(C4)CC(Oc4ncccc4C(N)=O)C5)nn(CC4(O)CC(F)(F)C4)c3c2)cn1` [Example 404, N-((aR)-6-((3-carbamoylpyridin-2-yl)oxy)spiro[3.3]heptan-2-yl)-1-((3,3-difluoro-1-hydroxycyclobutyl)methyl)-6-(1-methyl-1H-pyrazol-4-yl)-1H-indazole-3-carboxamide, TFA], for which the IC50 lay in the range of 5 to 50 nM. Still for that read-out and setting: the figure for `Cn1ncc2c(C(=O)NC3CC4(C3)CC(Oc3ncccc3C(N)=O)C4)cc(Br)cc21` [Example 425, 6-bromo-N-((aR)-6-((3-carbamoylpyridin-2-yl)oxy)spiro[3.3]heptan-2-yl)-1-methyl-1H-indazole-4-carboxamide] is 5 to 50 nM. The same measure, in the same setting: with `COc1ccc2c(c1)CCc1c(C(=O)NC3CC4(C3)CC(Oc3ncccc3C(N)=O)C4)nn(C)c1-2` [Example 380, N-((aR)-6-((3-carbamoylpyridin-2-yl)oxy)spiro[3.3]heptan-2-yl)-7-methoxy-1-methyl-4,5-dihydro-1H-benzo[g]indazole-3-carboxamide] the figure was 5 to 50 nM; with `C[C@@H]1CN(c2ccc3c(C(=O)NC4CC5(C4)CC(Oc4ncccc4C(N)=O)C5)nc(C(F)F)n3c2)C[C@H](C)O1` (stereo partly drawn) [Example 444, N-((aR)-6-((3-carbamoylpyridin-2-yl)oxy)spiro[3.3]heptan-2-yl)-3-(difluoromethyl)-6-((2S,6R)-2,6-dimethylmorpholino)imidazo[1,5-a]pyridine-1-carboxamide], < 5 nM.
